Patent publication US11427606B2, “Azithromycin derivatives containing a phosphonium ion as anticancer agents” (Rising Tide Foundation, priority 2017, dated 2022)

Tested on: MDA-231 cancer cells
Assay: Inhibition of proliferation assay: cell confluence (IncuCyte imaging)
Assay type: cell-based
Conditions: compound at 10 uM; MDA-231 cells; IncuCyte images every 3 h over 4-5 d; relative confluence normalised to time zero
Description: Inhibition of Proliferation Assay
The confluence value is a surrogate for cell proliferation and growth. The value is expressed as a percent confluence, which represents the fraction of culture dish-surface that is occupied by cells. As the number of cells in the dish increases over time due to proliferation, so will their coverage of that surface increase. Expansion of the cell population on the cell culture-dish surface and confluence have mostly a linear relationship until the cells on the plate surface begin to reach saturation or maximum density.
Confluence is determined based on image analysis. Image based software can identify objects in the image field base on changes to pixel density in a grey scale image. The software can then assign a mask to those pixels within the object. Objects can be ‘gated’ out based on size and shape. To determine cell confluence, images of cells are first masked as objects. The surface area of the image that is masked is measured and compared to the total surface area of the culture dish surface to obtain a percent confluence.
MDA-231 cancer cells were obtained from ATCC. Cells were cultured in Dulbecco's Modified Eagle Medium (DMEM) supplemented with 10% Fetal Bovine Serum (FBS), 2 mM Glutamax, 1 mM Non Essential Amino Acid (NEAA) solution and 1 mM sodium pyruvate. […] Final DMSO concentrations were […]. Images were acquired with an IncuCyte Live Cell Imaging microscopy (Essen Bioscience) at every 3 h under cell culture conditions with 10× objective over 4-5 d. Cell confluence was calculated from one field of view per well using the IncuCyte in-built algorithm. Relative confluence values were obtained by normalising each value to the time zero value in each sample.

## CC[C@H]1OC(=O)[C@H](C)[C@@H](O[C@H]2C[C@@](C)(OC)[C@@H](O)[C@H](C)O2)[C@H](C)[C@@H](O[C@@H]2O[C@H](C)C[C@H](N(C)C)[C@H]2O)[C@](C)(O)C[C@@H](C)CN(C(=O)CCCCCCC[P+](c2ccccc2-c2c(OC(C)C)cccc2OC(C)C)(C2CCCCC2)C2CCCCC2)[C@H](C)[C@@H](O)[C@]1(C)O [Example 6, [2′,6′-bis(propan-2-yloxy)-[1,1′-biphenyl]-2-yl]dicyclohexyl{8-[(2R,3S,4R,5R,8R,10R,11R,12S,13S,14R)-11-{[(2S,3R,4S,6R)-4-(dimethylamino)-3-hydroxy-6-methyloxan-2-yl]oxy}-2-ethyl-3,4,10-trihydroxy-13-{[(2R,4R,5S,6S)-5-hydroxy-4-methoxy-4,6-dimethyloxan-2-yl]oxy}-3,5,8,10,12,14-hexamethyl-15-oxo-1-oxa-6-azacyclopentadecan-6-yl]-8-oxooctyl}phosphonium hexafluorophosphate(V)]
  % Confluence: 4%

## CC[C@H]1OC(=O)[C@H](C)[C@@H](O[C@H]2C[C@@](C)(OC)[C@@H](O)[C@H](C)O2)[C@H](C)[C@@H](O[C@@H]2O[C@H](C)C[C@H](N(C)C)[C@H]2O)[C@](C)(O)C[C@@H](C)CN(C(=O)CCCCCCC[P+](C2CCCCC2)(C2CCCCC2)C2CCCCC2)[C@H](C)[C@@H](O)[C@]1(C)O [Example 7, tricyclohexyl({8-[(2R,3S,4R,5R,8R,10R,11R,12S,13S,14R)-11-{[(2S,3R,4S,6R)-4-(dimethylamino)-3-hydroxy-6-methyloxan-2-yl]oxy}-2-ethyl-3,4,10-trihydroxy-13-{[(2R,4R,5S,6S)-5-hydroxy-4-methoxy-4,6-dimethyloxan-2-yl]oxy}-3,5,8,10,12,14-hexamethyl-15-oxo-1-oxa-6-azacyclopentadecan-6-yl]-8-oxooctyl})phosphonium hexafluorophosphate(V)]
  % Confluence: 75.3%

## CC[C@H]1OC(=O)[C@H](C)[C@@H](O[C@H]2C[C@@](C)(OC)[C@@H](O)[C@H](C)O2)[C@H](C)[C@@H](O[C@@H]2O[C@H](C)C[C@H](N(C)C)[C@H]2O)[C@](C)(O)C[C@@H](C)CN(C(=O)CCCCCCC[P+](c2ccccc2)(c2ccccc2)c2ccccn2)[C@H](C)[C@@H](O)[C@]1(C)O [Example 8, {8-[(2R,3S,4R,5R,8R,10R,11R,12S,13S,14R)-11-{[(2S,3R,4S,6R)-4-(dimethylamino)-3-hydroxy-6-methyloxan-2-yl]oxy}-2-ethyl-3,4,10-trihydroxy-13-{[(2R,4R,5S,6S)-5-hydroxy-4-methoxy-4,6-dimethyloxan-2-yl]oxy}-3,5,8,10,12,14-hexamethyl-15-oxo-1-oxa-6-azacyclopentadecan-6-yl]-8-oxooctyl}diphenyl(pyridine-2-yl)phosphonium hexafluorophosphate(V)]
  % Confluence: 83%

## CC[C@H]1OC(=O)[C@H](C)[C@@H](O[C@H]2C[C@@](C)(OC)[C@@H](O)[C@H](C)O2)[C@H](C)[C@@H](O[C@@H]2O[C@H](C)C[C@H](N(C)C)[C@H]2O)[C@](C)(O)C[C@@H](C)CN(CCCCCC[P+](C2CCCCC2)(C2CCCCC2)C2CCCCC2)[C@H](C)[C@@H](O)[C@]1(C)O.[I-] [Example 9]
  % Confluence: 70.9%

## CC[C@H]1OC(=O)[C@H](C)[C@@H](O[C@H]2C[C@@](C)(OC)[C@@H](O)[C@H](C)O2)[C@H](C)[C@@H](O[C@@H]2O[C@H](C)C[C@H](N(C)C)[C@H]2O)[C@](C)(O)C[C@@H](C)CN(CCCCCC[P+](c2ccccc2-c2ccccc2N(C)C)(C2CCCCC2)C2CCCCC2)[C@H](C)[C@@H](O)[C@]1(C)O [Example 10, dicyclohexyl({6-[(2R,3S,4R,5R,8R,10R,11R,12S,13S,14R)-11-{[(2S,3R,4S,6R)-4-(dimethylamino)-3-hydroxy-6-methyloxan-2-yl]oxy}-2-ethyl-3,4,10-trihydroxy-13-{[(2R,4R,5S,6S)-5-hydroxy-4-methoxy-4,6-dimethyloxan-2-yl]oxy}-3,5,8,10,12,14-hexamethyl-15-oxo-1-oxa-6-azacyclopentadecan-6-yl]hexyl})[2′-(dimethylamino)-[1,1′-biphenyl]-2-yl]phosphonium iodide]
  % Confluence: 4%

## CC[C@H]1OC(=O)[C@H](C)[C@@H](O[C@H]2C[C@@](C)(OC)[C@@H](O)[C@H](C)O2)[C@H](C)[C@@H](O[C@@H]2O[C@H](C)C[C@H](N(C)C)[C@H]2O)[C@](C)(O)C[C@@H](C)CN(CCCCCCCC[P+](c2ccccc2)(c2ccccc2)c2ccc(N(C)C)cc2)[C@H](C)[C@@H](O)[C@]1(C)O.[I-] [Example 12]
  % Confluence: 4.1%

## CC[C@H]1OC(=O)[C@H](C)[C@@H](O[C@H]2C[C@@](C)(OC)[C@@H](O)[C@H](C)O2)[C@H](C)[C@@H](O[C@@H]2O[C@H](C)C[C@H](N(C)C)[C@H]2O)[C@](C)(O)C[C@@H](C)CN(CCCCCCCC[P+](c2ccc(OC)cc2)(c2ccc(OC)cc2)c2ccc(OC)cc2)[C@H](C)[C@@H](O)[C@]1(C)O.[I-] [Example 13]
  % Confluence: 4.8%

## CC[C@H]1OC(=O)[C@H](C)[C@@H](O[C@H]2C[C@@](C)(OC)[C@@H](O)[C@H](C)O2)[C@H](C)[C@@H](O[C@@H]2O[C@H](C)C[C@H](N(C)C)[C@H]2O)[C@](C)(O)C[C@@H](C)CN(CCCCCCCCCC[P+](c2ccc(OC)cc2)(c2ccc(OC)cc2)c2ccc(OC)cc2)[C@H](C)[C@@H](O)[C@]1(C)O.[I-] [Example 15]
  % Confluence: 16.6%

## CC[C@H]1OC(=O)[C@H](C)[C@@H](O[C@H]2C[C@@](C)(OC)[C@@H](O)[C@H](C)O2)[C@H](C)[C@@H](O[C@@H]2O[C@H](C)C[C@H](N(C)C)[C@H]2O)[C@](C)(O)C[C@@H](C)CN(C(=O)CCCCCCC[P+](c2cc(C)cc(C)c2)(c2cc(C)cc(C)c2)c2cc(C)cc(C)c2)[C@H](C)[C@@H](O)[C@]1(C)O [Example 16, {8-[(2R,3S,4R,5R,8R,10R,11R,12S,13S,14R)-11-{[(2S,3R,4S,6R)-4-(dimethylamino)-3-hydroxy-6-methyloxan-2-yl]oxy}-2-ethyl-3,4,10-trihydroxy-13-{[(2R,4R,5S,6S)-5-hydroxy-4-methoxy-4,6-dimethyloxan-2-yl]oxy}-3,5,8,10,12,14-hexamethyl-15-oxo-1-oxa-6-azacyclopentadecan-6-yl]-8-oxooctyl}tris(3,5-dimethylphenyl)phosphonium hexafluorophosphate(V)]
  % Confluence: 10%

## CC[C@H]1OC(=O)[C@H](C)[C@@H](O[C@H]2C[C@@](C)(OC)[C@@H](O)[C@H](C)O2)[C@H](C)[C@@H](O[C@@H]2O[C@H](C)C[C@H](N(C)C)[C@H]2O)[C@](C)(O)C[C@@H](C)CN(C(=O)CCCCCCC[P+](c2ccccc2)(c2ccccc2)c2ccccc2CN(C)C)[C@H](C)[C@@H](O)[C@]1(C)O [Example 17, {8-[(2R,3S,4R,5R,8R,10R,11R,12S,13S,14R)-11-{[(2S,3R,4S,6R)-4-(dimethylamino)-3-hydroxy-6-methyloxan-2-yl]oxy}-2-ethyl-3,4,10-trihydroxy-13-{[(2R,4R,5S,6S)-5-hydroxy-4-methoxy-4,6-dimethyloxan-2-yl]oxy}-3,5,8,10,12,14-hexamethyl-15-oxo-1-oxa-6-azacyclopentadecan-6-yl]-8-oxooctyl}({2-[(dimethylamino)methyl]phenyl})diphenylphosphonium hexafluorophosphate(V)]
  % Confluence: 93.1%

## CC[C@H]1OC(=O)[C@H](C)[C@@H](O[C@H]2C[C@@](C)(OC)[C@@H](O)[C@H](C)O2)[C@H](C)[C@@H](O[C@@H]2O[C@H](C)C[C@H](N(C)C)[C@H]2O)[C@](C)(O)C[C@@H](C)CN(C(=O)CCCCCCC[P+](c2ccccc2)(c2ccccc2)c2ccccc2-c2ccccc2)[C@H](C)[C@@H](O)[C@]1(C)O [Example 18, {[1,1′-biphenyl]-2-yl}({8-[(2R,3S,4R,5R,8R,10R,11R,12S,13S,14R)-11-{[(2S,3R,4S,6R)-4-(dimethylamino)-3-hydroxy-6-methyloxan-2-yl]oxy}-2-ethyl-3,4,10-trihydroxy-13-{[(2R,4R,5S,6S)-5-hydroxy-4-methoxy-4,6-dimethyloxan-2-yl]oxy}-3,5,8,10,12,14-hexamethyl-15-oxo-1-oxa-6-azacyclopentadecan-6-yl]-8-oxooctyl})diphenylphosphonium hexafluorophosphate(V)]
  % Confluence: 7.7%

## CC[C@H]1OC(=O)[C@H](C)[C@@H](O[C@H]2C[C@@](C)(OC)[C@@H](O)[C@H](C)O2)[C@H](C)[C@@H](O[C@@H]2O[C@H](C)C[C@H](N(C)C)[C@H]2O)[C@](C)(O)C[C@@H](C)CN(C(=O)CCCCCCC[P+](c2ccccc2)(c2ccccc2)c2ccc(N(C)C)cc2)[C@H](C)[C@@H](O)[C@]1(C)O [Example 19, {8-[(2R,3S,4R,5R,8R,10R,11R,12S,13S,14R)-11-{[(2S,3R,4S,6R)-4-(dimethylamino)-3-hydroxy-6-methyloxan-2-yl]oxy}-2-ethyl-3,4,10-trihydroxy-13-{[(2R,4R,5S,6S)-5-hydroxy-4-methoxy-4,6-dimethyloxan-2-yl]oxy}-3,5,8,10,12,14-hexamethyl-15-oxo-1-oxa-6-azacyclopentadecan-6-yl]-8-oxooctyl}[4-(dimethylamino)phenyl]diphenylphosphonium hexafluorophosphate(V)]
  % Confluence: 10.5%

## CC[C@H]1OC(=O)[C@H](C)[C@@H](O)[C@H](C)[C@@H](O[C@@H]2O[C@H](C)C[C@H](N(C)C)[C@H]2O)[C@](C)(O)C[C@@H](C)CN(CCCCCCCC[P+](c2ccc(OC)cc2)(c2ccc(OC)cc2)c2ccc(OC)cc2)[C@H](C)[C@@H](O)[C@]1(C)O [Example 20]
  % Confluence: 14.8%
